Source: patent US10479780B2, “Aminopyrazole derivatives” (Chugai Seiyaku Kabushiki Kaisha, priority 2015, dated 2019)
Read-outs that look alike come from different tables or passages of the source.

Tests used:
Format in all cases: biochemical
human Yes1 enzyme = molecular target: T1, human Yes1 enzyme (Homo sapiens, UniProt P07947); assay: Yes1 enzyme inhibitory activity (time-resolved fluorometry, biotinylated peptide phosphorylation); conditions: read-out: YES_IC50
T1 construct: made in house
How it was run: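 Inhibition was expressed against a compound-free control to give IC50, using TR-FRET read-out (Eu-cryptate anti-pTyr antibody, streptavidin-XL665).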

human Src enzyme = molecular target: T2, human Src enzyme (Homo sapiens, UniProt P12931); assay: Src enzyme inhibitory activity (time-resolved fluorometry, biotinylated peptide phosphorylation); conditions: read-out: SRC_IC50
T2 construct: purchased Carna Biosciences, Inc. 08-173
How it was run: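 Compounds were tested for blocking tyrosine phosphorylation of a biotinylated peptide substrate by recombinant human Src. Phosphorylated product was quantified by time-resolved fluorometry using europium cryptate and XL665 conjugates, and IC50 was calculated against the compound-free control.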

human Lck enzyme = molecular target: T3, human Lck enzyme (Homo sapiens, UniProt P06239); assay: Lck enzyme inhibitory activity (time-resolved fluorometry, biotinylated peptide phosphorylation); conditions: read-out: LCK_IC50
T3 construct: purchased Carna Biosciences, Inc. 08-170
How it was run: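 Readout pairs a europium cryptate-labelled anti-phosphotyrosine antibody with XL665-streptavidin, measured by time-resolved fluorescence. IC50 derived from percent inhibition against untreated controls.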

[1] = biotinylated peptide phosphorylation

T3 sequence (P06239 whole entry): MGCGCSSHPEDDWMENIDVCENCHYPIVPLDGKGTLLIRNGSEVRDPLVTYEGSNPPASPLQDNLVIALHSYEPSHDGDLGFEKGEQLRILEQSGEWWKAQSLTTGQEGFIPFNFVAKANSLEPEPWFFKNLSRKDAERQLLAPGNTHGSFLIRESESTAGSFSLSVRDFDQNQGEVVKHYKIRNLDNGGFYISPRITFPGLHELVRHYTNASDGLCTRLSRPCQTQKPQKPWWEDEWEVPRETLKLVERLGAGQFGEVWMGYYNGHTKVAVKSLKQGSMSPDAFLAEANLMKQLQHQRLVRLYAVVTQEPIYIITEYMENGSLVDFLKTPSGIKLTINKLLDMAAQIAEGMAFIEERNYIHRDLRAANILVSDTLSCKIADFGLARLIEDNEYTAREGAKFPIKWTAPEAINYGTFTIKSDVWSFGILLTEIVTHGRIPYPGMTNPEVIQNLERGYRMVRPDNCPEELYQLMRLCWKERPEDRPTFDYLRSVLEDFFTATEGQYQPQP
T2 sequence (P12931 whole entry): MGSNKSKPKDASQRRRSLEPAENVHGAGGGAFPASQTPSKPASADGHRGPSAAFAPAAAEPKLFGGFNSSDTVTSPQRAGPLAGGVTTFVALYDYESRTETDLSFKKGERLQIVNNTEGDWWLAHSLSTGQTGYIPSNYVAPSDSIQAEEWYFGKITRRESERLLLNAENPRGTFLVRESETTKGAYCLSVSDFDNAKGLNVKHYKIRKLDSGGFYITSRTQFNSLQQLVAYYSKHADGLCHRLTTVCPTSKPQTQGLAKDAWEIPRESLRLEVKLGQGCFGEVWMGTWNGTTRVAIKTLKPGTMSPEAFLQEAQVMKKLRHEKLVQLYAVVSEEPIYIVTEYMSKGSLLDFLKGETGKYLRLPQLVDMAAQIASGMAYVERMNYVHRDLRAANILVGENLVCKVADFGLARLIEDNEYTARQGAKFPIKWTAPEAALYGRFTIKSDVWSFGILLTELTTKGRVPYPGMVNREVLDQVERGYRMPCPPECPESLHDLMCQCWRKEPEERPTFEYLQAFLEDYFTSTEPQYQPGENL
T1 sequence (P07947 whole entry): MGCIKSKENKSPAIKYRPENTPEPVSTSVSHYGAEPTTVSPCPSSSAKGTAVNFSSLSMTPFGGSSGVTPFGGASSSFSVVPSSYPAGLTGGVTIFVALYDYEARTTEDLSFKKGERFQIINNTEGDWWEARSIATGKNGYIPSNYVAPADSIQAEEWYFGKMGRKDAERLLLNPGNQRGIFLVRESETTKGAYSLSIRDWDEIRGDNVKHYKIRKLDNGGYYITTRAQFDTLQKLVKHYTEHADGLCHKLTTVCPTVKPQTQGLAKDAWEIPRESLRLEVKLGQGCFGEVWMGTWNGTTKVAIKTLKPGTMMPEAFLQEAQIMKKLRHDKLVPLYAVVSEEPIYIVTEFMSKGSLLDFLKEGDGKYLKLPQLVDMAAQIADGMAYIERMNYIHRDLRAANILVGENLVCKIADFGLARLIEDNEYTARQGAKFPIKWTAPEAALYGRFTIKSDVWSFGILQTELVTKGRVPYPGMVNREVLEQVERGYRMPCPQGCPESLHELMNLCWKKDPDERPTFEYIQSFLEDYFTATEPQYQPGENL

| SMILES | IC50 (human Yes1 enzyme; [1]) | IC50 (human Src enzyme; [1]) | IC50 (human Lck enzyme; [1]) | IC50 (human Yes1 enzyme) | IC50 (human Src enzyme) | IC50 (human Lck enzyme) |
| --- | --- | --- | --- | --- | --- | --- |
| Cc1cc(Oc2ccccc2F)ccc1-n1ncc(C(=O)c2cc3cc(F)c(NS(=O)(=O)C4(CC(O)CO)CC4)cc3[nH]2)c1N (stereo not drawn) [Example 4-8-001, N-{2-{5-amino-1-[4-(2-fluorophenoxy)-2-methylphenyl]pyrazole-4-carbonyl}-5-fluoro-1H-indol-6-yl}-1-(2,3-dihydroxypropyl)cyclopropane-1-sulfonamide] | 1.1 nM | 31 nM | 14 nM |  |  |  |
| Cc1cc2cc(C(=O)c3cnn(-c4ccc(Oc5ccccc5F)cc4C)c3N)[nH]c2cc1NS(=O)(=O)c1cncc(F)c1 [Example 5-1-545, N-[2-[5-amino-1-[4-(2-fluorophenoxy)-2-methylphenyl]pyrazole-4-carbonyl]-5-methyl-1H-indol-6-yl]-5-fluoropyridine-3-sulfonamide] | 3.1 nM | 150 nM | 22 nM |  |  |  |
| Cc1cc(Oc2ccccc2F)ccc1-n1ncc(C(=O)c2cc3cc(F)c(NS(=O)(=O)c4cccc(Cl)n4)cc3[nH]2)c1N [Example 5-1-527, N-[2-[5-amino-1-[4-(2-fluorophenoxy)-2-methylphenyl]pyrazole-4-carbonyl]-5-fluoro-1H-indol-6-yl]-6-chloropyridine-2-sulfonamide] | 3.2 nM | 500 nM | 110 nM |  |  |  |
| Cc1cc(Oc2ccccc2F)ccc1-n1ncc(C(=O)c2cc3cc(OC4CCOCC4)c(NS(C)(=O)=O)cc3[nH]2)c1N [Example 4-24-036, N-{2-{5-amino-1-[4-(2-fluorophenoxy)-2-methylphenyl]pyrazole-4-carbonyl}-5-(oxan-4-yloxy)-1H-indol-6-yl}methanesulfonamide] | 4.2 nM | 120 nM | 20 nM |  |  |  |
| Cc1cc2cc(C(=O)c3cnn(-c4ccc(Oc5ccccc5F)cc4C)c3N)[nH]c2cc1N1C(=O)NC2(CCC2)C1=O [Example 5-1-371, 7-[2-[5-amino-1-[4-(2-fluorophenoxy)-2-methylphenyl]pyrazole-4-carbonyl]-5-methyl-1H-indol-6-yl]-5,7-diazaspiro[3.4]octane-6,8-dione] |  |  |  | 2 nM | 30 nM | 9.8 nM |
| Cc1cc(-n2ncc(C(=O)c3cc4cc(OC5CCN(C6CCCC6)CC5)c(-c5ccccc5C)cc4[nH]3)c2N)ccc1Oc1ccccc1F [Example 5-1-335, [5-amino-1-[4-(2-fluorophenoxy)-3-methylphenyl]pyrazol-4-yl]-[5-(1-cyclopentylpiperidin-4-yl)oxy-6-(2-methylphenyl)-1H-indol-2-yl]methanone] |  |  |  | 2.7 nM | 1700 nM | 120 nM |
| Cc1cc(Oc2ccccc2F)ccc1-n1ncc(C(=O)c2cc3cc(OC(F)F)c(Br)cc3[nH]2)c1N [Example 5-1-082, [5-amino-1-[4-(2-fluorophenoxy)-2-methylphenyl]pyrazol-4-yl]-[6-bromo-5-(difluoromethoxy)-1H-indol-2-yl]methanone] |  |  |  | 1.9 nM | 26 nM | 11 nM |
| Cc1cc(Oc2ccccc2F)ccc1-n1ncc(C(=O)c2cc3cc(F)c(N4CCC(N5CCOCC5)CC4)cc3[nH]2)c1N [Example 5-1-128, [5-amino-1-[4-(2-fluorophenoxy)-2-methylphenyl]pyrazol-4-yl]-[5-fluoro-6-(4-morpholin-4-ylpiperidin-1-yl)-1H-indol-2-yl] methanone] |  |  |  | 0.75 nM | 23 nM | 3.8 nM |
| Cc1cc(-n2ncc(C(=O)c3cc4cc(OCC(F)F)c(N5C(=O)NC(C)(C)C5=O)cc4[nH]3)c2N)ccc1Oc1ccccc1F [Example 5-1-170, 3-[2-[5-amino-1-[4-(2-fluorophenoxy)-3-methylphenyl]pyrazole-4-carbonyl]-5-(2,2-difluoroethoxy)-1H-indol-6-yl]-5,5-dimethylimidazolidine-2,4-dione] |  |  |  | 1.3 nM | 490 nM | 89 nM |
| CC(=O)N1CCC(c2cc3[nH]c(C(=O)c4cnn(-c5c(C)cc(Oc6ccccc6F)cc5F)c4N)cc3cc2OC(F)F)CC1 [Example 4-17-005, 1-[4-[2-[5-amino-1-[2-fluoro-4-(2-fluorophenoxy)-6-methylphenyl]pyrazole-4-carbonyl]-5-(difluoromethoxy)-1H-indol-6-yl]piperidin-1-yl]ethanone] | 2.9 nM | 36 nM | 17 nM |  |  |  |
| Cc1cc(Oc2ccccc2F)cc(F)c1-n1ncc(C(=O)c2cc3cc(OCC(F)F)c(N4CCC(N5CCOCC5)CC4)cc3[nH]2)c1N [Example 4-25-029, [5-amino-1-[2-fluoro-4-(2-fluorophenoxy)-6-methylphenyl]pyrazol-4-yl]-[5-(2,2-difluoroethoxy)-6-(4-morpholin-4-ylpiperidin-1-yl)-1H-indol-2-yl]methanone] | 2.4 nM | 21 nM | 6.8 nM |  |  |  |

The remaining lines, values ahead:

| IC50 (human Yes1 enzyme; [1]) | IC50 (human Src enzyme; [1]) | IC50 (human Lck enzyme; [1]) | IC50 (human Yes1 enzyme) | IC50 (human Src enzyme) | IC50 (human Lck enzyme) | SMILES |
| --- | --- | --- | --- | --- | --- | --- |
|  |  |  | 5 nM | 57 nM | 43 nM | Cc1cc(Oc2c(F)cccc2F)ncc1-n1ncc(C(=O)c2cc3cc(OC(F)F)c(Br)cc3[nH]2)c1N [Example 5-1-149, [5-amino-1-[6-(2,6-difluorophenoxy)-4-methylpyridin-3-yl]pyrazol-4-yl]-[6-bromo-5-(difluoromethoxy)-1H-indol-2-yl]methanone] |
| 1.1 nM | 26 nM | 2.2 nM |  |  |  | Cc1cc(Oc2ccccc2F)ncc1-n1ncc(C(=O)c2cc3cc(OC(F)F)c(N4CCCC4=O)cc3[nH]2)c1N [Example 4-25-014, 1-[2-[5-amino-1-[6-(2-fluorophenoxy)-4-methylpyridin-3-yl]pyrazole-4-carbonyl]-5-(difluoromethoxy)-1H-indol-6-yl]pyrrolidin-2-one] |
|  |  |  | 2.8 nM | 63 nM | 37 nM | Cc1cc(Oc2ccccc2F)ncc1-n1ncc(C(=O)c2cc3cc(F)c(NS(=O)(=O)C4CCOCC4)cc3[nH]2)c1N [Example 5-1-378, N-[2-[5-amino-1-[6-(2-fluorophenoxy)-4-methylpyridin-3-yl]pyrazole-4-carbonyl]-5-fluoro-1H-indol-6-yl]oxane-4-sulfonamide] |
|  |  |  | 0.36 nM | 2.5 nM | 1.7 nM | Cc1cc(Oc2c(F)cccc2F)ncc1-n1ncc(C(=O)c2cc3cc(OC4CCN(C(C)C)CC4)c(N4CCOCC4)cc3[nH]2)c1N [Example 5-1-185, [5-amino-1-[6-(2,6-difluorophenoxy)-4-methylpyridin-3-yl]pyrazol-4-yl]-[6-morpholin-4-yl-5-(1-propan-2-ylpiperidin-4-yl)oxy-1H-indol-2-yl]methanone] |
|  |  |  | 1.8 nM | 5.5 nM | 6.1 nM | Cc1cc(Oc2c(F)cccc2F)ncc1-n1ncc(C(=O)c2cc3cc(OC4CCN(C(C)C)CC4)c(-c4cncnc4)cc3[nH]2)c1N [Example 5-1-241, [5-amino-1-[6-(2,6-difluorophenoxy)-4-methylpyridin-3-yl]pyrazol-4-yl]-[5-(1-propan-2-ylpiperidin-4-yl)oxy-6-pyrimidin-5-yl-1H-indol-2-yl]methanone] |
| 3.2 nM | 130 nM | 12 nM |  |  |  | Cc1cc2cc(C(=O)c3cnn(-c4cnc(Oc5c(F)cccc5F)cc4C)c3N)[nH]c2cc1N1C(=O)N[C@@H](C(C)C)C1=O [Example 5-1-453, (5S)-3-[2-[5-amino-1-[6-(2,6-difluorophenoxy)-4-methylpyridin-3-yl]pyrazole-4-carbonyl]-5-methyl-1H-indol-6-yl]-5-propan-2-ylimidazolidine-2,4-dione] |
